#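 Step 1: Grow cells in 96-well plates. Step 2: Expose to compound for 48 hours at 5 concentrations. Step 3: Interpolate endpoints linearly; if unreached, use highest concentration. GI50 marks 50% less growth. The concentration for full growth arrest is given as TGI.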
# Columns and labels:
# Experiment in all cases: NCI anticancer screen, dose series, 48 h
# BT-549 breast = system: BT-549 breast
# DU-145 prostate = system: DU-145 prostate
# HCT-116 colon = system: HCT-116 colon
# HOP-92 NSCLC = system: HOP-92 NSCLC
# HS 578T breast = system: HS 578T breast
# M14 melanoma = system: M14 melanoma
# MDA-MB-435 = system: MDA-MB-435
# MOLT-4 leukemia = system: MOLT-4 leukemia
# NCI-H460 lung = system: NCI-H460 lung
# NCI/ADR-RES ovarian = system: NCI/ADR-RES ovarian
# OVCAR-3 ovarian = system: OVCAR-3 ovarian
# SN12C renal = system: SN12C renal
# SNB-19 CNS = system: SNB-19 CNS
# SNB-75 CNS = system: SNB-75 CNS
# SR leukemia = system: SR leukemia
# SW-620 colon = system: SW-620 colon
# U251 CNS = system: U251 CNS
# UO-31 renal = system: UO-31 renal
structure (smiles),measurement,setting,value
COc1cc(C2c3cc4c(cc3[C@H](OCCN(C)C)[C@@H]3COC(=O)C23)OCO4)cc(OC)c1O (stereo partly drawn),TGI,BT-549 breast,2.32 µM
same,TGI,DU-145 prostate,0.549 µM
same,TGI,HCT-116 colon,7.18 µM
same,TGI,HOP-92 NSCLC,1.5 µM
same,TGI,HS 578T breast,6.04 µM
same,TGI,M14 melanoma,2.58 µM
same,TGI,MDA-MB-435,16.9 µM
same,TGI,MOLT-4 leukemia,0.684 µM
same,TGI,NCI-H460 lung,0.766 µM
same,TGI,NCI/ADR-RES ovarian,15.1 µM
same,TGI,OVCAR-3 ovarian,4.08 µM
same,TGI,SN12C renal,0.598 µM
same,TGI,SNB-19 CNS,5.98 µM
same,TGI,SNB-75 CNS,3.79 µM
same,TGI,SR leukemia,0.778 µM
same,TGI,SW-620 colon,3.4 µM
same,GI50,U251 CNS,0.0409 µM
same,TGI,U251 CNS,0.898 µM
same,TGI,UO-31 renal,1.71 µM
O=C(CNc1ccc(Cl)cc1)Nn1c(-c2ccccc2)nc2ccccc2c1=O,TGI,BT-549 breast,6.29 µM
same,TGI,DU-145 prostate,28.5 µM
same,TGI,HCT-116 colon,4.65 µM
same,TGI,HOP-92 NSCLC,13.4 µM
same,TGI,HS 578T breast,67 µM
same,TGI,M14 melanoma,20.3 µM
same,TGI,MDA-MB-435,23.2 µM
same,TGI,MOLT-4 leukemia,16.2 µM
same,TGI,NCI-H460 lung,23.4 µM
same,TGI,NCI/ADR-RES ovarian,19 µM
same,TGI,OVCAR-3 ovarian,25.8 µM
same,TGI,SN12C renal,20.9 µM
same,TGI,SNB-19 CNS,24.5 µM
same,TGI,SNB-75 CNS,24.1 µM
same,TGI,SR leukemia,> 52.1 µM
same,TGI,SW-620 colon,11.9 µM
same,TGI,U251 CNS,5.02 µM
same,TGI,UO-31 renal,20.4 µM
CC(=O)c1cccc2c1CC1(C2)Cc2ccc3c(c2C1=O)CCC3 (stereo not drawn),TGI,BT-549 breast,> 100 µM
same,TGI,DU-145 prostate,> 100 µM
same,TGI,HCT-116 colon,> 100 µM
same,TGI,HOP-92 NSCLC,64.2 µM
same,TGI,HS 578T breast,> 100 µM
same,TGI,M14 melanoma,> 100 µM
same,TGI,MDA-MB-435,> 100 µM
same,TGI,MOLT-4 leukemia,> 100 µM
same,TGI,NCI-H460 lung,> 100 µM
same,TGI,NCI/ADR-RES ovarian,57.5 µM
same,TGI,OVCAR-3 ovarian,> 100 µM
same,TGI,SN12C renal,> 100 µM
same,TGI,SNB-19 CNS,> 100 µM
same,TGI,SNB-75 CNS,> 100 µM
same,TGI,SR leukemia,73.1 µM
same,TGI,SW-620 colon,> 100 µM
same,TGI,U251 CNS,> 100 µM
same,TGI,UO-31 renal,> 100 µM
CC(=O)OCC1OC(N2C(c3ccccc3)=CC(c3ccccc3)C(C#N)=C2S)C(OC(C)=O)C(OC(C)=O)C1OC(C)=O (stereo not drawn),TGI,BT-549 breast,20.6 µM
same,TGI,DU-145 prostate,> 100 µM
same,TGI,HCT-116 colon,> 65.6 µM
same,TGI,HOP-92 NSCLC,16.6 µM
same,TGI,HS 578T breast,29.8 µM
same,TGI,M14 melanoma,74 µM
same,TGI,MDA-MB-435,> 40.2 µM
same,TGI,MOLT-4 leukemia,> 100 µM
same,TGI,NCI-H460 lung,> 49.5 µM
same,TGI,NCI/ADR-RES ovarian,> 100 µM
same,TGI,OVCAR-3 ovarian,> 63.1 µM
same,TGI,SN12C renal,15.7 µM
same,TGI,SNB-19 CNS,26.5 µM
same,TGI,SNB-75 CNS,54.2 µM
same,TGI,SR leukemia,> 100 µM
same,TGI,SW-620 colon,> 100 µM
same,TGI,U251 CNS,16.2 µM
same,TGI,UO-31 renal,51 µM
COC(=O)CCC(=O)NC1c2cccc3cccc(c23)Cn2c(=O)n(C)c(=O)n21 (stereo not drawn),TGI,BT-549 breast,> 100 µM
same,TGI,DU-145 prostate,> 100 µM
same,TGI,HCT-116 colon,> 100 µM
same,TGI,HOP-92 NSCLC,> 100 µM
same,TGI,HS 578T breast,> 100 µM
same,TGI,M14 melanoma,> 100 µM
same,TGI,MDA-MB-435,> 100 µM
same,TGI,MOLT-4 leukemia,> 100 µM
same,TGI,NCI-H460 lung,> 100 µM
same,TGI,NCI/ADR-RES ovarian,> 100 µM
same,TGI,OVCAR-3 ovarian,> 100 µM
same,TGI,SN12C renal,> 100 µM
same,TGI,SNB-19 CNS,> 100 µM
same,TGI,SNB-75 CNS,> 100 µM
same,TGI,SR leukemia,> 100 µM
same,TGI,SW-620 colon,> 100 µM
same,TGI,U251 CNS,> 100 µM
same,TGI,UO-31 renal,> 100 µM
Clc1cccc(Cl)c1C1SCC2=Nc3ccccc3CN21 (stereo not drawn),TGI,BT-549 breast,> 100 µM
same,TGI,DU-145 prostate,68.4 µM
same,TGI,HCT-116 colon,25.7 µM
same,TGI,HOP-92 NSCLC,> 100 µM
same,TGI,HS 578T breast,62.2 µM
same,TGI,M14 melanoma,48.1 µM
same,TGI,MDA-MB-435,> 100 µM
same,TGI,MOLT-4 leukemia,> 100 µM
same,TGI,NCI-H460 lung,> 100 µM
same,TGI,NCI/ADR-RES ovarian,40 µM
same,TGI,OVCAR-3 ovarian,29.5 µM
same,TGI,SN12C renal,> 100 µM
same,TGI,SNB-19 CNS,25.8 µM
same,TGI,SNB-75 CNS,> 100 µM
same,TGI,SR leukemia,> 100 µM
same,TGI,SW-620 colon,> 100 µM
same,TGI,U251 CNS,> 100 µM
same,TGI,UO-31 renal,43.2 µM
COc1ccc(OC)c2c1C(=O)C(Cl)=C(N1CCN(CCOCCO)CC1)C2=O,TGI,BT-549 breast,28 µM
same,TGI,DU-145 prostate,32.8 µM
same,TGI,HCT-116 colon,17 µM
same,TGI,HOP-92 NSCLC,31.8 µM
same,TGI,HS 578T breast,38.2 µM
same,TGI,M14 melanoma,31.7 µM
same,TGI,MDA-MB-435,27.9 µM
same,TGI,MOLT-4 leukemia,32.8 µM
same,TGI,NCI-H460 lung,38 µM
same,TGI,NCI/ADR-RES ovarian,59 µM
same,TGI,OVCAR-3 ovarian,31.1 µM
same,TGI,SN12C renal,25.5 µM
same,TGI,SNB-19 CNS,29.5 µM
same,TGI,SNB-75 CNS,29.3 µM
same,TGI,SR leukemia,29.3 µM
same,TGI,SW-620 colon,28.7 µM
same,TGI,U251 CNS,41.3 µM
same,TGI,UO-31 renal,29.9 µM
CCOC(=O)NC(Nc1ccc(S(=O)(=O)Nc2ncccn2)cc1)(C(=O)OCC)C(F)(F)F (stereo not drawn),TGI,BT-549 breast,> 100 µM
same,TGI,DU-145 prostate,> 100 µM
same,TGI,HCT-116 colon,> 100 µM
same,TGI,HOP-92 NSCLC,> 100 µM
same,TGI,HS 578T breast,> 100 µM
same,TGI,M14 melanoma,> 100 µM
same,TGI,MDA-MB-435,> 100 µM
same,TGI,MOLT-4 leukemia,> 100 µM
same,TGI,NCI-H460 lung,> 100 µM
same,TGI,NCI/ADR-RES ovarian,> 100 µM
same,TGI,OVCAR-3 ovarian,> 100 µM
same,TGI,SN12C renal,> 100 µM
same,TGI,SNB-19 CNS,> 100 µM
same,TGI,SNB-75 CNS,> 100 µM
same,TGI,SR leukemia,> 100 µM
same,TGI,SW-620 colon,> 100 µM
same,TGI,U251 CNS,> 100 µM
same,TGI,UO-31 renal,> 100 µM
Cc1ccc(S(=O)(=O)OC2C3OC(C)(C)OC3OC2C(c2cc(O)c3c(c2O)C(=O)c2ccccc2C3=O)c2cc(O)c3c(c2O)C(=O)c2ccccc2C3=O)cc1 (stereo not drawn),TGI,BT-549 breast,> 10 µM
same,TGI,DU-145 prostate,> 10 µM
same,TGI,HCT-116 colon,> 10 µM
same,TGI,HOP-92 NSCLC,> 10 µM
same,TGI,HS 578T breast,> 10 µM
same,TGI,M14 melanoma,> 10 µM
same,TGI,MDA-MB-435,> 10 µM
same,TGI,MOLT-4 leukemia,> 10 µM
same,TGI,NCI-H460 lung,> 10 µM
same,TGI,NCI/ADR-RES ovarian,> 10 µM
same,TGI,OVCAR-3 ovarian,> 10 µM
same,TGI,SN12C renal,> 10 µM
same,TGI,SNB-19 CNS,> 10 µM
same,TGI,SNB-75 CNS,> 10 µM
same,TGI,SR leukemia,> 10 µM
same,TGI,SW-620 colon,> 10 µM
same,TGI,U251 CNS,> 10 µM
same,TGI,UO-31 renal,> 10 µM
